In EP0431327B1, “Synthetic vaccine for the specific induction of cytotoxic T-lymphocytes” (HOECHST AKTIENGESELLSCHAFT, priority 1989, dated 1991):

System: Influenza-Virus A/PR/8
Assay: Protection of immunised mice against intranasal influenza virus infection (survival, body weight)
Format: in vivo, BALB/c-Inzuchtmäuse
Protocol: Unter SPF-Bedingungen gezüchtete, 3 Monate alte BALB/c-Inzuchtmäuse wurden intravenös mit 100 µg Pam₃cys-Ser-Ser-[NP 147-158] immunisiert. (100 µg Pam₃Cys-Ser-Ser-[NP 147-158], aufgenommen in 300 µl PBS, 1 min beschallt). Nach 28 Tagen wurden die Mäuse mit 0,2 bzw. 0,4 haemagglutinierenden Einheiten Influenza-Virus A/PR/8 intranasal infiziert. Analog wurden zur Kontrolle Mäuse infiziert, denen 300 µl PBS intravenös appliziert wurde. Der Verlauf der Infektion wurde anhand von täglichen Gewichtskontrollen und der Überlebensrate kontrolliert. 11 von 12 Kontrolltieren, die mit 0,4 haemagglutinierenden Einheiten infiziert wurden, starben nach 11 Tagen an der Virusinfektion, während von den immunisierten Tieren nur 4 von 12 starben.
Eine weitere Kontrollgruppe und eine mit Pam₃Cys-Ser-Ser-[NP 147-158] immunisierte Gruppe wurden mit 0,2 haemagglutinierenden Einheiten Influenza-Virus infiziert. Nach 18 Tagen lebten noch 40 % der Kontrolltiere (4 von 10 Tieren), während 75 % der immunisierten Tiere lebten. Am Tag 18 betrug die Gewichtsdifferenz zwischen immunisierten Tieren und Kontrolltieren 4 g.

N-Palmitoyl-S-[2,3-(bispalmitoyloxy)-propyl]cysteinyl-seryl-seryl-NP 147-158 [Pam₃Cys-Ser-Ser-[NP 147-158]]
Verlauf der Infektion (Gewicht) (0,2 haemagglutinating units, after day 18, surviving controls kept losing weight): langsam von der Infektion erholten | Gewichtsdifferenz zwischen immunisierten Tieren und Kontrolltieren (0,2 haemagglutinating units, day 18): 4 g | immunisierte Tiere, die an der Virusinfektion starben (100 µg i.v. in 300 µl PBS, after 28 days infected intranasally with 0,4 haemagglutinating units, deaths after 11 days, PBS controls 11 von 12): 4 von 12 | lebende immunisierte Tiere (immunised group infected with 0,2 haemagglutinating units, after 18 days, controls 40 %): 75%
